{"source": "patent US20230277632A1", "about": "“MODIFIED PlySs2 LYSINS AND ANTIBIOTIC COMBINATIONS FOR USE AGAINST GRAM-POSITIVE BACTERIA” (ContraFect Corporation, priority 2020, published 2023)", "test_system": "MSSA strains", "experiment": "Checkerboard assay: pp296 or CF-301 with oxacillin", "assay_type": "cell-based, Staphylococcus aureus", "settings": "for MIC: Staphylococcus aureus, read-out: Single agent MICs; for FIC / MIC in combination: pp296 + oxacillin; for MIC in combination: unit assumed; for ΣFICmin: with oxacillin", "excerpt": "In some embodiments, the present modified lysin polypeptides reduce the minimum inhibitory concentration (MIC) of an antibiotic. Any known method to assess MIC may be used. In some embodiments, a checkerboard assay is used to determine the effect of a lysin on antibiotic concentration. The checkerboard assay is based on a modification of the CLSI method for MIC determination by broth microdilution (See Clinical and Laboratory Standards Institute (CLSI), CLSI. 2015. Methods for Dilution Antimicrobial Susceptibility Tests for Bacteria That Grow Aerobically; Approved Standard-10th Edition. Clinical and Laboratory Standards Institute, Wayne, Pa., which is herein incorporated by reference in its entirety and Ceri et al. 1999. J. Clin. Microbiol. 37: 1771-1776, which is also herein incorporated by reference in its entirety).\nCheckerboards are constructed by first preparing columns of e.g., a 96-well polypropylene microtiter plate, wherein each well has the same amount of antibiotic diluted 2-fold along the horizontal axis. […] The lysin and antibiotic dilutions are then combined, so that each column has a constant amount of antibiotic and doubling dilutions of lysin, while each row has a constant amount of lysin and doubling dilutions of antibiotic. Each well thus has a unique combination of lysin and antibiotic. Bacteria are added to the drug combinations at a given concentration. […] Summation fractional inhibitory concentrations (ΣFICs) are calculated for each drug and the minimum ΣFIC value (ΣFICmin) is used to determine the effect of the lysin/antibiotic combination.\nThe ability of CF-301 or a modified lysin polypeptide pp296 to synergize with oxacillin was assessed using a checkerboard analysis. For the checkerboard assay, a total of 50 μl of Mueller-Hinton broth is distributed into each well of microdilution plates. Then, a first antibiotic of a combination is serially diluted along the ordinate, while a second drug is diluted along the abscissa. An inoculum equal to a 0.5 McFarland turbidity standard is prepared from each bacterial isolate in Mueller-Hinton broth. Each microtiter well is then inoculated with 100 μl of a bacterial inoculum of 5×10^5 CFU/ml, and the plates are incubated at 37° C. for 18 h under aerobic conditions. The resulting checkerboard contains each combination of two antibiotics, with wells that contain the highest concentration of each antibiotic at opposite corners. […] To quantify the interactions between the antibiotics being tested, the FIC index (the combination of antibiotics that produced the greatest change from the individual antibiotic's MIC) value is calculated for each strain and antibiotic combination as follows:\n(A/MICA)+(B/MICB)=FICA+FICB=FIC index,\nwhere A and B are the MIC of each agent in combination in a single well, and MICA and MICB are the MIC of each drug when used individually. The combination is considered strongly synergistic when the FIC index is ≤0.5 and synergistic when the FIC index is >0.5-<1.", "note": "Where two headings read alike, the source gives them in different places.", "data": [{"molecule": "Cc1onc(-c2ccccc2)c1C(=O)N[C@@H]1C(=O)N2[C@@H]1SC(C)(C)[C@@H]2C(=O)O", "note": "[Oxacillin, oxacillin]", "values": [{"measurement": "MIC", "setting": "ATCC 29213 / MSSA, MSSA ATCC 29213", "value": 0.5, "unit": "µg/mL"}, {"measurement": "MIC", "setting": "MSSA, MSSA JMI-6625", "value": 1, "unit": "µg/mL"}, {"measurement": "MIC", "setting": "MSSA, MSSA JMI-6885", "value": 1, "unit": "µg/mL"}, {"measurement": "MIC", "setting": "MSSA, MSSA JMI-6886", "value": 1, "unit": "µg/mL"}, {"measurement": "MIC", "setting": "MSSA, MSSA JMI-7054", "value": 1, "unit": "µg/mL"}, {"measurement": "MIC", "setting": "MSSA, MSSA JMI-7160", "value": 1, "unit": "µg/mL"}, {"measurement": "MIC", "setting": "MSSA, MSSA JMI-38739", "value": 0.5, "unit": "µg/mL"}, {"measurement": "MIC", "setting": "MSSA, MSSA JMI-38986", "value": 0.5, "unit": "µg/mL"}, {"measurement": "MIC", "setting": "MSSA, MSSA JMI-40671", "value": 0.5, "unit": "µg/mL"}, {"measurement": "MIC", "setting": "MSSA, MSSA JMI-46142", "value": 0.5, "unit": "µg/mL"}, {"measurement": "FIC", "setting": "MSSA ATCC 29213", "value": 0.25}, {"measurement": "MIC in combination", "setting": "MSSA ATCC 29213", "value": 0.125, "unit": "µg/mL"}, {"measurement": "FIC", "setting": "MSSA JMI-6625", "value": 0.25}, {"measurement": "MIC in combination", "setting": "MSSA JMI-6625", "value": 0.25, "unit": "µg/mL"}, {"measurement": "FIC", "setting": "MSSA JMI-6885", "value": 0.125}, {"measurement": "MIC in combination", "setting": "MSSA JMI-6885", "value": 0.125, "unit": "µg/mL"}, {"measurement": "FIC", "setting": "MSSA JMI-6886", "value": 0.25}, {"measurement": "MIC in combination", "setting": "MSSA JMI-6886", "value": 0.25, "unit": "µg/mL"}, {"measurement": "FIC", "setting": "MSSA JMI-7054", "value": 0.25}, {"measurement": "MIC in combination", "setting": "MSSA JMI-7054", "value": 0.25, "unit": "µg/mL"}, {"measurement": "FIC", "setting": "MSSA JMI-7160", "value": 0.25}, {"measurement": "MIC in combination", "setting": "MSSA JMI-7160", "value": 0.25, "unit": "µg/mL"}, {"measurement": "FIC", "setting": "MSSA JMI-38739", "value": 0.25}, {"measurement": "MIC in combination", "setting": "MSSA JMI-38739", "value": 0.125, "unit": "µg/mL"}, {"measurement": "FIC", "setting": "MSSA JMI-38986", "value": 0.25}, {"measurement": "MIC in combination", "setting": "MSSA JMI-38986", "value": 0.125, "unit": "µg/mL"}, {"measurement": "FIC", "setting": "MSSA JMI-40671", "value": 0.125}, {"measurement": "MIC in combination", "setting": "MSSA JMI-40671", "value": 0.0625, "unit": "µg/mL"}, {"measurement": "FIC", "setting": "MSSA JMI-46142", "value": 0.25}, {"measurement": "MIC in combination", "setting": "MSSA JMI-46142", "value": 0.125, "unit": "µg/mL"}]}, {"molecule": "CF-301: Lysin CF-301, comparator lysin in the oxacillin checkerboard analysis (protein) MTTVNEALNNVRAQVGSGVSVGNGECYALASWYERMISPDATVGLGAGVGWVSGAIGDTISAKNIGSSYNWQANGWTVSTSGPFKAGQIVTLGATPGNPYGHVVIVEAVDGDRLTILEQNYGGKRYPVRNYYSAASYRQQVVHYITPPGTVAQSAPNLAGSRSYRETGTMTVTVDALNVRRAPNTSGEIVAVYKRGESFDYDTVIIDVNGYVWVSYIGGSGKRNYVATGATKDGKRFGNAWGTFK", "values": [{"measurement": "ΣFICmin", "setting": "MSSA ATCC 29213", "value": 0.5}, {"measurement": "ΣFICmin", "setting": "MSSA JMI-6625", "value": 0.375}, {"measurement": "ΣFICmin", "setting": "MSSA JMI-6885", "value": 0.5}, {"measurement": "ΣFICmin", "setting": "MSSA JMI-6886", "value": 0.5}, {"measurement": "ΣFICmin", "setting": "MSSA JMI-7054", "value": 0.5}, {"measurement": "ΣFICmin", "setting": "MSSA JMI-7160", "value": 0.5}, {"measurement": "ΣFICmin", "setting": "MSSA JMI-38739", "value": 0.5}, {"measurement": "ΣFICmin", "setting": "MSSA JMI-38986", "value": 0.375}, {"measurement": "ΣFICmin", "setting": "MSSA JMI-40671", "value": 0.3125}, {"measurement": "ΣFICmin", "setting": "MSSA JMI-46142", "value": 0.375}]}]}
